{"source": "patent US20240309016A1", "about": "“MACROCYCLIC HETEROCYCLE COMPOUNDS AND USE THEREOF” (TAKEDA PHARMACEUTICAL COMPANY LIMITED, priority 2023, published 2024)", "key": {"[1]": {"target": "T1, human OX2 receptor (Homo sapiens, UniProt O43614)", "T1 construct": "expressed in transfected cells", "T1 sequence (O43614 1-444)": "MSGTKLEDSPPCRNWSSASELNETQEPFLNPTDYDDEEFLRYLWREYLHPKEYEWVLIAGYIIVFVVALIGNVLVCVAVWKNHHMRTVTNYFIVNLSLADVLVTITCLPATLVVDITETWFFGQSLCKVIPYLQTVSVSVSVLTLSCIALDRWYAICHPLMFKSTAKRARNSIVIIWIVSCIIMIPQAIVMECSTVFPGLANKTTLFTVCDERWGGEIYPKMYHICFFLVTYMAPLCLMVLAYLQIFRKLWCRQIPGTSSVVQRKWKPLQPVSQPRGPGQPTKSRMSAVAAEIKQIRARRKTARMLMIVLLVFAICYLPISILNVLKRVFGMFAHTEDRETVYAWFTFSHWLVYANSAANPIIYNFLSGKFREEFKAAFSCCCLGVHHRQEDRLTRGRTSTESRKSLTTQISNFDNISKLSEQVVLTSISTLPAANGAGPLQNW", "test": "Measurement of orexin type 2 receptor agonist activity (Experimental Example 3; calcium 5 dye, FLIPR Tetra)", "type": "cell-based", "details": "compound at 1 μM; CHO cells expressing human OX2 receptor; DMSO = 0%, 10 nM orexin A (human) = 100%", "method": "In order to obtain cell clones that stably express human orexin type 2 receptor, human orexin type 2 (residues 1-444, NCBI Reference Sequence: AK314279) was constructed in a pcDNA3.1 (+) vector (Invitrogen) to express in mammalian cells. This plasmid DNA was transfected into CHO-K1 cells by electroporation, and stable clones were obtained by limiting dilution using resistance to G418 as a selection marker.\nCHO cells in which human OX2 receptor was forcibly expressed were seeded at 5,000 cells/well into a 384-well black transparent bottom plate (Costar) in 25 ul complete media, and were then incubated at 37° C., 5% CO2 for 1 day. The next day, 25 ul of 2× calcium 5 dye (Molecular Devices) in assay buffer (HBSS (Thermo Fisher Scientific), 20 mM HEPES (Thermo Fisher Scientific), 2.5 mM probenecid). After incubation in a 5% CO2 incubator at 37° C. for 40 minutes, it was incubated at room temperature for another 20 minutes. Add 5 μL/well of the test compound diluted with assay buffer B (HBSS, 20 mM HEPES), using FLIPR Tetra (Molecular Devices) to measure the fluorescence value every 1 second for 1 minute, and then every 2 seconds for 1 minute. It was measured for 1 minute and 40 seconds. The amount of fluorescence value when DMSO is added instead of the test compound is defined as 0%, and the amount of fluorescence value when orexin A (human) (Peptide Institute) with a final concentration of 10 nM is added is defined as 100%. The activity (%) of the test compound was calculated."}, "[2]": {"target": "T1, human OX2 receptor", "test": "Measurement of orexin type 2 receptor agonist activity (Experimental Example 2; Fluo-4 AM calcium fluorescence, FDSS μCELL)", "type": "cell-based", "details": "compound at 3 μM; CHO cells expressing human OX2 receptor; DMSO = 0%, 10 nM orexin A (human) = 100%", "how_it_was_run": "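Agonism was tested in CHO-K1 cells stably expressing human OX2 receptor (residues 1-444), loaded with Fluo-4 AM plus probenecid. Calcium fluorescence was recorded for 1 min 40 s after compound addition. Activity (%) was scaled between DMSO (0%) and 10 nM orexin A (100%) and reported at 3 μM compound.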"}}, "note": "Counter-ions that a name gives are not always drawn. Like-named read-outs stand apart in the source and are kept apart here."}
{"molecule": "CC(C)S(=O)(=O)N[C@@H]1[C@@H]2Cc3cccc(c3F)Oc3nc(ccc3Cl)CNC(=O)N2CC1(F)F", "note": "[Example 108, N-[(15aS,16R)-7-chloro-17,17,20-trifluoro-1-oxo-2,3,15a,16,17,18-hexahydro-1H,15H-4,8-(azeno)-10,14-(metheno)pyrrolo[1,2-j][1,8,10]oxadiazacyclo-heptadecin-16-yl]propane-2-sulfonamide]", "values": [{"measurement": "OX2R agonist activity (1 μM, %)", "setting": "[1]", "value": 101, "unit": "%"}]}
{"molecule": "CCS(=O)(=O)N[C@@H]1[C@@H]2Cc3cccc(c3F)[C@@H](C)c3nc(ccc3C)CNC(=O)N2CC1(F)F", "note": "(single isomer, unassigned) [Example 105, N-[(9R,15aS,16R)-17,17,20-trifluoro-7,9-dimethyl-1-oxo-2,3,15a,16,17,18-hexahydro-1H,9H,15H-4,8-(azeno)-10,14-(metheno)pyrrolo[1,2-c][1,3]diazacycloheptadecin-16-yl]ethanesulfonamide or N-[(9S,15aS,16R)-17,17,20-trifluoro-7,9-dimethyl-1-oxo-2,3,15a,16,17,18-hexahydro-1H,9H,15H-4,8-(azeno)-10,14-(metheno)pyrrolo[1,2-c][1,3]diazacycloheptadecin-16-yl]ethanesulfonamide]", "values": [{"measurement": "OX2R agonist activity (1 μM, %)", "setting": "[1]", "value": 106, "unit": "%"}]}
{"molecule": "Cc1cc(F)c2nc1Oc1cccc(c1F)C[C@H]1[C@@H](NS(=O)(=O)C(C)C)C(F)(F)CN1C(=O)NC2", "note": "[Example 109, N-[(15aS,16R)-5,17,17,20-tetrafluoro-7-methyl-1-oxo-2,3,15a,16,17,18-hexahydro-1H,15H-4,8-(azeno)-10,14-(metheno)pyrrolo[1,2-j][1,8,10]oxadiazacyclo-heptadecin-16-yl]propane-2-sulfonamide]", "values": [{"measurement": "OX2R agonist activity (1 μM, %)", "setting": "[1]", "value": 108, "unit": "%"}]}
{"molecule": "CCS(=O)(=O)N[C@@H]1[C@@H]2Cc3cccc(c3F)Cc3nc(ccc3C)O[C@@H](C)C(=O)N2CC1(F)F", "note": "[Example 111, N-[(2S,15aS,16R)-17,17,20-trifluoro-2,7-dimethyl-1-oxo-1,2,15a,16,17,18-hexahydro-9H,15H-4,8-(azeno)-10,14-(metheno)pyrrolo[1,2-d][1,4]oxazacycloheptadecin-16-yl]ethanesulfonamide]", "values": [{"measurement": "ring closure, yield of all isomers", "setting": "from CCS(=O)(=O)N[C@@H]1[C@H](Cc2cccc(Cc3nc(O[C@@H](C)C(=O)O)ccc3C)c2F)NCC1(F)F, amide bond, HATU/DIPEA, DMF, 2.83 mM, 25.0 °C, 16.0 h", "value": 11.8, "unit": "%"}, {"measurement": "OX2R agonist activity (1 μM, %)", "setting": "[1]", "value": 103, "unit": "%"}]}
{"molecule": "CCS(=O)(=O)N[C@@H]1[C@@H]2Cc3cccc(c3F)Cc3nc(ccc3C)OCC(=O)N2CC1(F)F", "note": "[Example 102, N-[(15aS,16R)-17,17,20-trifluoro-7-methyl-1-oxo-1,2,15a,16,17,18-hexahydro-9H,15H-4,8-(azeno)-10,14-(metheno)pyrrolo[1,2-d][1,4]oxazacycloheptadecin-16-yl]ethanesulfonamide]", "values": [{"measurement": "OX2R agonist activity (1 μM, %)", "setting": "[1]", "value": 94, "unit": "%"}]}
{"molecule": "CCS(=O)(=O)N[C@@H]1[C@@H]2Cc3cccc(c3F)Cc3cc(ccc3C)CNC(=O)N2CC1(F)F", "note": "[Example 103, N-[(15aS,16R)-17,17,20-trifluoro-7-methyl-1-oxo-2,3,15a,16,17,18-hexahydro-1H,9H,15H-4,8:10,14-di(metheno)pyrrolo[1,2-c][1,3]diazacycloheptadecin-16-yl]ethanesulfonamide]", "values": [{"measurement": "OX2R agonist activity (1 μM, %)", "setting": "[1]", "value": 104, "unit": "%"}]}
{"molecule": "CCS(=O)(=O)N[C@@H]1[C@@H]2Cc3cccc(c3F)Cc3nc(ccc3C)CNC(=O)N2CC1(F)F", "note": "[Example 104, N-[(15aS,16R)-17,17,20-trifluoro-7-methyl-1-oxo-2,3,15a,16,17,18-hexahydro-1H,9H,15H-4,8-(azeno)-10,14-(metheno)pyrrolo[1,2-c][1,3]diazacycloheptadecin-16-yl]ethanesulfonamide hydrochloride]", "values": [{"measurement": "OX2R agonist activity (1 μM, %)", "setting": "[1]", "value": 109, "unit": "%"}]}
{"molecule": "CC(C)S(=O)(=O)N[C@@H]1[C@@H]2Cc3cccc(c3F)Oc3nc(ccc3C(F)F)CNC(=O)N2CC1(F)F", "note": "[Example 110, N-[(15aS,16R)-7-(difluoromethyl)-17,17,20-trifluoro-1-oxo-2,3,15a,16,17,18-hexahydro-1H,15H-4,8-(azeno)-10,14-(metheno)pyrrolo[1,2-j][1,8,10]oxadiazacyclo-heptadecin-16-yl]propane-2-sulfonamide]", "values": [{"measurement": "OX2R agonist activity (1 μM, %)", "setting": "[1]", "value": 108, "unit": "%"}]}
{"molecule": "CCS(=O)(=O)N[C@@H]1[C@@H]2Cc3ccc(C)c(c3F)Oc3nc(ccc3C)CNC(=O)N2CC1(F)F", "note": "[Example 101, N-[(15aS,16R)-17,17,20-trifluoro-7,11-dimethyl-1-oxo-2,3,15a,16,17,18-hexahydro-1H,15H-4,8-(azeno)-10,14-(metheno)pyrrolo[1,2-j][1,8,10]oxadiazacyclohept-adecin-16-yl]ethanesulfonamide]", "values": [{"measurement": "OX2R agonist activity (1 μM, %)", "setting": "[1]", "value": 108, "unit": "%"}]}
{"molecule": "CCS(=O)(=O)N[C@@H]1[C@@H]2Cc3cccc(c3F)[C@H](C)c3nc(ccc3C)CNC(=O)N2CC1(F)F", "note": "(single isomer, unassigned) [Example 106]", "values": [{"measurement": "OX2R agonist activity (1 μM, %)", "setting": "[1]", "value": 90, "unit": "%"}]}
{"molecule": "CCS(=O)(=O)N[C@@H]1[C@@H]2Cc3c(C)ccc(c3F)Oc3nc(ccc3C)CNC(=O)N2CC1(F)F", "note": "[Example 98, N-[(15aS,16R)-17,17,20-trifluoro-7,13-dimethyl-1-oxo-2,3,15a,16,17,18-hexahydro-1H,15H-4,8-(azeno)-14,10-(metheno)pyrrolo[1,2-j][1,8,10]oxadiazacyclo-heptadecin-16-yl]ethanesulfonamide]", "values": [{"measurement": "OX2R agonist activity (1 μM, %)", "setting": "[1]", "value": 65, "unit": "%"}]}
{"molecule": "CCS(=O)(=O)N[C@@H]1[C@@H]2Cc3cccc(c3F)Oc3nc(ccc3C)NCC(=O)N2CC1(F)F", "note": "[Example 99, N-[(15aS,16R)-17,17,20-trifluoro-7-methyl-1-oxo-2,3,15a,16,17,18-hexahydro-1H,15H-4,8-(azeno)-14,10-(metheno)pyrrolo[1,2-j][1,7,10]oxadiazacyclo-heptadecin-16-yl]ethanesulfonamide]", "values": [{"measurement": "ring closure, yield of all isomers", "setting": "from CCS(=O)(=O)N[C@@H]1[C@H](Cc2cccc(Oc3nc(NCC(=O)O)ccc3C)c2F)NCC1(F)F, amide bond, HATU / DIPEA, DMF, 1.74 mM, 25.0 °C, 12.0 h", "value": 13.3, "unit": "%"}, {"measurement": "OX2R agonist activity (1 μM, %)", "setting": "[1]", "value": 97, "unit": "%"}]}
{"molecule": "CCS(=O)(=O)N[C@@H]1[C@@H]2Cc3cccc(c3F)C(F)(F)c3nc(ccc3C)CNC(=O)N2CC1(F)F", "note": "[Example 100, N-[(15aS,16R)-9,9,17,17,20-pentafluoro-7-methyl-1-oxo-2,3,15a,16,17,18-hexahydro-1H,9H,15H-4,8-(azeno)-14,10-(metheno)pyrrolo[1,2-c][1,3]diazacycloheptadecin-16-yl]ethanesulfonamide]", "values": [{"measurement": "ring closure, yield of all isomers", "setting": "from CCS(=O)(=O)N[C@@H]1[C@H](Cc2cccc(C(F)(F)c3nc(CN)ccc3C)c2F)NCC1(F)F, other bond, CDI/DIPEA, THF, 11.0 mM, 45.0 °C, 16.0 h", "value": 30.8, "unit": "%"}, {"measurement": "OX2R agonist activity (1 μM, %)", "setting": "[1]", "value": 84, "unit": "%"}]}
{"molecule": "Cc1cc(F)c2nc1Oc1cccc(c1F)C[C@H]1[C@@H](NS(C)(=O)=O)C(F)(F)CN1C(=O)NC2", "note": "[Example 36, N-[(15aS,16R)-5,17,17,20-tetrafluoro-7-methyl-1-oxo-2,3,15a,16,17,18-hexahydro-1H,15H-4,8-(azeno)-14,10-(metheno)pyrrolo[1,2-j][1,8,10]oxadiazacyclo-heptadecin-16-yl]methanesulfonamide]", "values": [{"measurement": "ring closure, yield of all isomers", "setting": "from Cc1cc(F)c(CN)nc1Oc1cccc(C[C@@H]2NCC(F)(F)[C@@H]2NS(C)(=O)=O)c1F, other bond, di(N-succinimidyl) carbonate, THF, 2.95 mM, 60.0 °C, 1.5 h, 2 steps", "value": 38.2, "unit": "%"}, {"measurement": "OX2R agonist activity (3 μM, %)", "setting": "[2]", "value": 104, "unit": "%"}]}
